Results on two compounds are retold here after PMC12648443, “Modifications of NU-9, a potent protein aggregation inhibitor. Properties and activity in a cellular model of amyotrophic lateral sclerosis” (Bioorganic chemistry, 2025).

The nature of data set [1]: In vitro cytotoxicity, CellTiter-Glo, HepG2. The conditions noted are these: human, HepG2 cells; for viability at 24 h, 30 μM / viability at 48 h, 30 μM: relative to untreated cells, read-out: Percentage of viable cells observed at 30 μM treatment, HepG2; for EC50 at 24 h / EC50 at 48 h: cytotoxicity. In kind it is cell-based. As to the method:
(§1) The HepG2 and HEK293 cells were cultured in DMEM media supplemented with 10 % FBS (heat-inactivated), 1 % Pen-strep, and L-glutamine and incubated at 37 °C in humidified air with 5 % CO2 until 85–90 % confluency. The PC12 Tet-Off-SOD1^G85R YFP cells were maintained as described in 4.2. On the day before the experiments, the cells were transferred to white bottom 96 well plates (Greiner cat. 655,083) at a concentration of 50,000 cells/100 μL of media in each well and incubated overnight at 37 °C. Stock solutions of the compounds (30 mM) in DMSO were prepared and then diluted in media to obtain the six final working solutions starting at 30 μM, and serial dilutions were obtained with the lowest concentration at 0.25 μM. The media were removed and fresh media containing the compounds or the vehicle DMSO (0.1 % v/v) were transferred to the plates containing HepG2 and HEK293 cells and the plates were incubated for 24 or 48 h at 37 °C. The PC12 Tet-Off-SOD1^G85R YFP cells compound treatment was performed as described in section 4.2 and using a 9-point 2-fold serial dilution of the compounds starting at 15 μM and the lowest concentration at 0.05 μM. After incubation, the plates were cooled to room temperature and 25 μL of CellTiter-Glo® solution was added to each well. The plates were loaded into a BioTek Synergy H1 MD plate reader and shaken for 2 min, stabilized for 10 min without shaking, and then the luminescence values were read for each well (luminescence integration step 1 ms). Wells containing media with the vehicle DMSO with or without cells were used as controls to represent, respectively, the maximum viability and the lowest viability (background signal) for the cytotoxicity studies with HepG2 and HEK293 cell lines. The viability values for the assay performed with the PC12 Tet-Off-SOD1^G85R YFP cells were normalised for the vehicle (0.1 % DMSO) and (−)-MG-132 alone treatments, which represented respectively the […] viability for the assay.
(§2) The results are presented as an average of three independent experiments, each performed in triplicate, for the cytotoxicity experiments performed with HepG2 and HEK293 cells. The results for the protective screening with the PC12 Tet-Off-SOD1^G85R YFP cells are presented as an average of four replicates.
A general note: Cellular ATP, detected with luciferase, serves as a proxy for viable cell number.

For the next data set, the system named is HepG2 cells. Nature of the data set: In vitro cytotoxicity, CellTiter-Glo, HepG2. In kind it is cell-based. The conditions noted are these: cytotoxicity EC50 (HepG2, HEK293) versus PC12-SOD1^G85R EC50. As to the method:
as §1, §2

Data set [2] concerns PC12-SOD1^G85R YFP cells co-treated with MG132. Description: Viability screening against MG132-induced toxicity, CellTiter-Glo. In kind it is cell-based. The conditions noted are these: PC12-SOD1^G85R YFP cells co-treated with MG132 and the compounds; read-out: PC12-SOD1^G85R EC50, in vitro viability screening (protection against MG132-induced toxicity). The procedure:
as §1, with “assay. […]” for “assay.”

Data set [3] in a line: In vitro cytotoxicity, CellTiter-Glo, HEK293. In kind it is cell-based. The conditions noted are these: human, HEK293 cells; for viability at 24 h, 30 μM / viability at 48 h, 30 μM: relative to untreated cells, read-out: Percentage of viable cells observed at 30 μM treatment, HEK293; for EC50 at 24 h / EC50 at 48 h: cytotoxicity. The procedure:
as §1, §2

In the next data set the target is T1, P-gp (Homo sapiens, UniProt P08183).
T1 construct: host or cells: MDCK-MDR1 (Madin Darby canine kidney cells carrying the MDR1 gene)
T1 sequence (P08183 whole entry): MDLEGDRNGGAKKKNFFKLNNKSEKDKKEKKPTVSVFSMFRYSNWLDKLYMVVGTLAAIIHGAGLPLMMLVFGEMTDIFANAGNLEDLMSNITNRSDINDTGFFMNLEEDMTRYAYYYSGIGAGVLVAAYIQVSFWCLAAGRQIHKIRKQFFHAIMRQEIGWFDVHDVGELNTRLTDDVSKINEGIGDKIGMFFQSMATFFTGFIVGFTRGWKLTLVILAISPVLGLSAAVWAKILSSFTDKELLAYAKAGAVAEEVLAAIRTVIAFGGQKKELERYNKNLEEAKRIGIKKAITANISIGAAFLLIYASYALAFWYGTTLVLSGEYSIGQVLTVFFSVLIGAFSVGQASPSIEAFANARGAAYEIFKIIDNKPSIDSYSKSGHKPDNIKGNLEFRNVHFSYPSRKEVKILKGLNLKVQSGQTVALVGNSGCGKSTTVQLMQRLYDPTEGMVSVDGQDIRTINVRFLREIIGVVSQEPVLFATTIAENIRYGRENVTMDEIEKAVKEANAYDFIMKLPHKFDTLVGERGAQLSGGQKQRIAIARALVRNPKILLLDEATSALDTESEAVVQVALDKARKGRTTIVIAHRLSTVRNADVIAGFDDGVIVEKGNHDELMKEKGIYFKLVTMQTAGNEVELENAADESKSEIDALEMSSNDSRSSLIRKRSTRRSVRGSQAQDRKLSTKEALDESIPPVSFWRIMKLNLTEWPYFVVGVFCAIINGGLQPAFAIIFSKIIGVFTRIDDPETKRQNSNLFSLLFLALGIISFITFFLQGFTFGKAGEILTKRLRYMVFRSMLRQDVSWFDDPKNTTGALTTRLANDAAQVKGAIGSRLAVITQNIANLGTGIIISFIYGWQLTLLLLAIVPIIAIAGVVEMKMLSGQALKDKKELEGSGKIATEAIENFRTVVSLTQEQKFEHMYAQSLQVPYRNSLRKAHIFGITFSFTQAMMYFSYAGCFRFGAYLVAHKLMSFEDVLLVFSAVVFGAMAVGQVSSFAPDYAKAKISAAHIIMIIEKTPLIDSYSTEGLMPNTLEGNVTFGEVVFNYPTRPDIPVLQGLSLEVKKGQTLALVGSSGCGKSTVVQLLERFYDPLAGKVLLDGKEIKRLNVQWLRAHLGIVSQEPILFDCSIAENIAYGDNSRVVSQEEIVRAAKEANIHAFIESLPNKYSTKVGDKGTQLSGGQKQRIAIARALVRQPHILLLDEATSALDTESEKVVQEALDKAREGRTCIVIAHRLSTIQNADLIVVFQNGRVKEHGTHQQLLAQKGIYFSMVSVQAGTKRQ
Nature of the data set: MDCK-MDR1 bidirectional permeability / efflux assay. In kind it is in vitro ADME. The following applies: MDCK-MDR1; for Papp A→B at 120 min / Papp B→A at 120 min / efflux ratio at 120 min: dog. As to the method:
The assay was carried out at Sai Life Sciences. Stock solutions of 6, 20, assay controls loperamide, atenolol, and propanolol (4 and 20 mM), and P-gp inhibitor zosuquidar (10 mM) were prepared in DMSO. Then the stock solutions from each test compound were diluted in HBSS buffer containing 10 mM HEPES to obtain the assay working solutions without the P-gp inhibitor at 2 and 10 μM (0.1 % DMSO v/v). Into working solutions containing zosuquidar (5 μM) were individually diluted 6, 20, and loperamide to obtain working solutions containing the test compounds at 2 or 10 μM and zosuquidar at 5 μM.
The MDCK-MDR1 (Madin Darby canine kidney - Multidrug Resistance gene-1) cells were cultured in DMEM media supplemented with 10 % FBS and antibiotics. For transport studies, cells were seeded into PET trans filter membranes (Millipore #PSRP010R5; 1.0 μm pore size) at a density of 1.2 × 10^5 cells/well and colchicine was added to the flasks and plates according to their volume. After 24 h, the media were replaced by fresh media and then changed every 2 days over 8 days. The media were removed from the wells of the basal and apical compartments of the plates, and a solution of HBSS with or without zosuquidar (5 μM) was added to the apical (400 μL) and basal (800 μL) sides of the plates. The plates were pre-incubated at 37 °C for 30 min in humidified air with 5 % CO2. The TTER (Transepithelial-Transendothelial Electrical Resistance) value for each well was recorded (assay TEER >83 Ω.cm^2). The buffer was removed from both compartments, and for the apical to basal direction transport determination, the apical compartment was loaded with 400 μL of the working solutions of the tested compounds or controls (2 or 10 μM) in the presence or absence of zosuquidar (5 μM), and the basal compartment was loaded with 800 μL of HBSS (0.1 % DMSO v/v). For the basal to apical direction transport determination, the compartments were loaded in their reverse order. The assay was performed in duplicate for the two transport directions [apical to basolateral (A → B) and basolateral to apical (B → A)]. After 120 min, 100 μL samples from both the apical and basal sides of the plate were transferred to new 96-deep well plates, quenched with acetonitrile containing an internal standard, vortexed for 5 min, and then centrifuged at 4000 rpm for 10 min. The same procedure was used to prepare a 96-deep well plate containing non-assayed working solutions (t = 0 concentrations). After centrifugation, 100 μL of the supernatant of each well was transferred to a new 96-well plate, and the samples were analyzed by LC-MS/MS.
For each experiment, the apparent permeability (Papp) for each direction and the efflux ratio (ER) were determined by the equations: Papp(cm/s)=(dQ/dt)/A×Co
where dQ/dt is the rate of permeation of the tested compounds across the (0 and 120 min) after correcting for dilution; A is the area of the filter (0.7 cm^2); Co is the initial concentration of the compounds on the donor compartment.
Where P(B→A) is the apparent permeability of the compounds from the basal to the apical direction and P(A→B) is the apparent permeability from the apical to basal direction. Lucifer Yellow was used as a control of the assay to evaluate monolayer integrity after incubation with the working solutions of the compounds, and the results were validated if the permeability of Lucifer Yellow from the apical to the basal side after 1-h incubation was kept <2 %. The results are presented as an average of two independent experiments.

Broadly, the EC50 is the concentration at which the effect is half-maximal. Broadly, the Papp A→B is the apparent permeability from the apical to the basolateral side of a cell layer. A lower Papp A→B goes with poor permeation. The term Papp B→A denotes the apparent permeability from the basolateral to the apical side of a cell layer. The term efflux ratio denotes a quotient of directional permeabilities that is used to spot active efflux.

`O=C1CC(=O)CC(/C=C/c2cc(C(F)(F)F)cc(C(F)(F)F)c2)C1` [Compound 6, (E)-5-(3,5-Bis(trifluoromethyl)styryl)cyclohexane-1,3-dione]: in data set [1], the viability at 24 h, 30 μM is 91.9%; the viability at 48 h, 30 μM stood at 94%; the EC50 at 24 h is over 30 µM; the concentration giving a half-maximal response (EC50) at 48 h was over 30 µM. For the same compound, the “EC50 Fold difference” value in the data set with HepG2 cells is over 14. In addition, in data set [2], the half-maximal effective concentration (EC50) worked out at 1.98 ± 0.25 µM. In data set [3], the viability at 24 h, 30 μM worked out at 82.6%; the viability at 48 h, 30 μM is 89.6%; the EC50 at 24 h was over 30 µM; the EC50 at 48 h is over 30 µM. On P-gp, the “substrate for the P-gp transporter” value was “substrates”, the apical-to-basolateral permeability (Papp A→B) at 120 min was determined as 10.6 ± 1.28 ×10⁻⁶ cm/s, the Papp B→A at 120 min came out at 24.31 ± 0.18 ×10⁻⁶ cm/s and the efflux ratio at 120 min turned out to be 2.29.
Take `CC(C)(Oc1cc(C(F)(F)F)cc(C(F)(F)F)c1)C1CC(=O)CC(=O)C1` [Compound 20, 5-(2-(3,5-bis(trifluoromethyl)phenoxy)propan-2-yl)cyclohexane-1,3-dione]: in data set [1], the viability at 24 h, 30 μM came out at 96%; the viability at 48 h, 30 μM was determined as 92.3%; the EC50 at 24 h was over 30 µM; the concentration for a half-maximal effect (EC50) at 48 h is over 30 µM. The “EC50 Fold difference” value in the data set with HepG2 cells is on record as over 11. Moreover, the EC50 in data set [2] came out at 2.47 ± 0.15 µM. Moreover, in data set [3], the viability at 24 h, 30 μM worked out at 90%; the viability at 48 h, 30 μM worked out at 91.6%; the concentration giving a half-maximal response (EC50) at 24 h is over 30 µM; the EC50 at 48 h was over 30 µM. In addition, at P-gp, the “substrate for the P-gp transporter” value is “substrates”, the Papp A→B at 120 min worked out at 5.82 ± 0.06 ×10⁻⁶ cm/s, the Papp B→A at 120 min stood at 14.7 ± 0.78 ×10⁻⁶ cm/s and the efflux ratio at 120 min came to 2.53.
